According to patent publication US20240299584A1, “NON-CODING RNA PROTECTING AGAINST HEART FAILURE” (MEDIZINISCHE HOCHSCHULE HANNOVER, priority 2019, published 2024):
“Also recorded” adds a separate entry of the source.

What was measured:
HL-1 cells [1] = assay: RT-qPCR expression in HL-1 cells; assay type: cell-based, mouse; conditions: for expression of circ-Insr: 24 h, epirubicin 1 and 5 μM, daunorubicin 1.25 and 2.5 μM, paclitaxel 0.1 and 0.5 μM
Description: HL-1 cells were cultured in Claycomb medium together with 10% FBS, norepinephrine, L-Glutamine and pencillin/streptomycin as manufacturer's protocol. 3T3 and RAW264.7 cells were cultured in DMEM with 10% FBS and pencillin/streptomycin. Neonatal rat cardiomyocytes (NRCM) were isolated from one to three-day old rat babies by using the Neonatal Heart Dissociation Kit (Miltenyi). Human iPSC derived cardiomyocytes (hiPSC-cm) were differentiated at the lab of IMTTS. […] NRCM and hipsc-CM were transduced by AAV6 (MOI: 1*10^4) for 72 hours.
(§1) RNA isolation from cell culture and heart tissue was done using Trifast (Peqlab) as per the manufacturer's instructions. Isolated RNA (500 ng-1000 ng) was reversed transcribed with random primer using iScript Select cDNA synthesis kit (Biorad). Real-Time quantative PCR was done with iQ SYBR Green mix (Biorad) on C1000 Touch Thermocycler (Biorad) using specific primer pairs. For amplification of circular RNAs, divergent primers were used while normal linear transcripts were amplified by convergent primers as usual. For RNase R resistant assay RNA was incubated with RNase R (Biozym Scientific) at 37° C. for 10 minutes and heat […] at 95° C. for three minutes. RNA was then reverse transcribed and amplified by specific PCR primers as mentioned before.

[2] = Body weight changes in doxorubicin cardiotoxicity mouse model; assay type: in vivo; conditions: doxorubicin and vehicle treated mice
Description: (§5) The AAV-circINSR construct was packaged into AAV9 and injected adult male mice (12 weeks) with a single dose of 2×10^12 viral genomes/mouse or with the same amount of AAV9-empty control vectors. After two weeks to allow full AAV mediated gene expression, the mice received a cumulative dose of 25 mg/kg/bw doxorubicin over a course of 5 weeks and were sacrificed 1 week later after echocardiography was performed (FIG. 4A).
(§6) C57BL/6 N mice of 8 weeks of age were injected (intraperitoneally) with doxorubicin at a dose of 5 mg/kg once a week for consecutive 5 weeks. One week later after the last doxorubicin treatment, echocardiography data were recorded by an independent blinded researcher using the Vevo 2100 system (Fujifilm Visulasonics, Inc). […] Echocardiography data were analyzed using standard imaging protocols (M-mode and B-mode) for global cardiac volumes and functioning using the Vevostrain software (Fujifilm Visulasonics, Inc). […] AAV9 (adeno-associated virus serotype 9) was injected (intravenously) 2 weeks before first doxorubicin injection. Animal experiments were randomized and blinded with an internal number.

mouse heart = assay: RT-qPCR expression analysis in mouse heart tissue; assay type: in vivo
Description: as §1

circulating circINSR = assay: circINSR level in mouse plasma; assay type: in vivo; conditions: doxorubicin vs PBS control
From the text: NcRNAs can be released into the extra-cellular space through passive mechanisms (e.g. necrosis of cells) or actively within secreted microvesicles^20. Since they can be readily isolated and measured from body fluids such as blood, these circulating ncRNAs have gained much attention as potential biomarkers for various diseases^21, 22. Indeed, ot was possible to detect circINSR in human and murine plasma (FIG. 9A,B). Strikingly, levels of circulating circINSR were diminished in mice treated with doxorubicin, which warrants further investigation of circINSR as a marker for anthracycline-related heart failure. Then the presence of circINSR in exosomes isolated from HL-1 cell culture supernatants was tested. […] To further corroborate the findings, a circINSR knock-out cell line was generated. Using a dual guideRNA CRISPR/Cas9 approach the majority of the circINSR forming exon was excised (FIG. 18A,B). Expectedly, this not only abrogated circINSR expression but also INSR protein expression (FIG. 18C,D). Then this cell line was used to overexpress circINSR via transfection with pcDNA3.1.
RNA isolation from cell culture and heart tissue was done using Trifast (Peqlab) as per the manufacturer's instructions. Isolated RNA (500 ng-1000 ng) was reversed transcribed with random primer using iScript Select cDNA synthesis kit (Biorad). […]

apoptotic cardiomyocytes = assay: TUNEL and cardiac troponin T co-staining of heart sections; assay type: in vivo, mouse; conditions: transversal heart sections, doxorubicin model; circINSR given as AAV9
Description: (§2) In addition to apoptosis, doxorubicin is known to cause cardiomyocyte atrophy^12 (G). Thus, histopathology analyses were performed on transversal heart section.
Cells were fixed with 4% paraformaldehyde for twenty minutes at room temperature and then permeabilized with ice-cold 0.1% Triton-X-100 in PBS for two minutes at room temperature. Next cells were incubated with enzyme labelling solution provided with In Situ cell death detection kit (Roche) for 1 hour at 37° C. For negative staining, enzyme was not added to the labelling solution. Cells were then washed and incubated with Dapi for 15 minutes. To specifically label neonatal rat cardiomyocytes and hipsc-CM, cells were co-stained with cardiac Troponin T (Thermofisher) after Tunel staining. Images were taken with Nikon Eclipse Ti microscope and images were analyzed with NIS Elements. For analysis in each case, ten different images were analyzed from different regions and average value was taken. Similarly, cryosections of heart were also processed for staining. Numerous images covering complete heart section was taken and Tunel positive nuclei were counted in each field. Average value for each heart was calculated.

cardiomyocytes = assay: Cardiomyocyte size on wheat germ agglutinin stained heart sections; assay type: in vivo, mouse; conditions: WGA stained heart sections, doxorubicin model; circINSR given as AAV9
Description: as §2
Cryosections of heart were stained with Alexa Fluor 488 labelled wheat germ agglutinin (Invitrogen) and dapi. Images were taken with Nikon Eclipse Ti microscope and images were analyzed with NIS Elements. For each heart 5 to 10 images were randomly taken from different regions of the section and minimum two hundred cells were measured and average value was taken for each heart.

HL-1 cells [3] = assay: Annexin V & 7-AAD staining (apoptosis); assay type: cell-based, mouse; conditions: HL-1 cells treated with doxorubicin 0.25 μM 48 h
Description: (§3) HL-1 cells were cultured in Claycomb medium together with 10% FBS, norepinephrine, L-Glutamine and pencillin/streptomycin as manufacturer's protocol. 3T3 and RAW264.7 cells were cultured in DMEM with 10% FBS and pencillin/streptomycin. Neonatal rat cardiomyocytes (NRCM) were isolated from one to three-day old rat babies by using the Neonatal Heart Dissociation Kit (Miltenyi). Human iPSC derived cardiomyocytes (hiPSC-cm) were differentiated at the lab of IMTTS. All the cells were treated with 0.25 μM Doxorubicin (Sigma-Aldrich) for 48 hours. circ-Insr siRNA (Eurofins), in vitro circular RNA and overexpression plasmid were transfected with Lipofectamine 2000 (Life Technologies) in OptiMEM medium. NRCM and hipsc-CM were transduced by AAV6 (MOI: 1*10^4) for 72 hours.
FlowCellect Annexin Red kit (Millipore) was used to stain apoptotic cells as per the manufacturer instruction. Briefly, cells were seeded in 12 well plate and next day treated with 0.25 μM Doxorubicin in normal medium with 10% FBS for forty-eight hours. Then cells were trypsinized and harvested and stained with Annexin-V for 15 minutes at 37° C. in 1× assay buffer. Annexin-V stained cells were centrifuged and washed with 1× assay buffer. Next cells were incubated with 7-AAD for 5 minutes and acquired on Guava (Millipore) flow cytometer. Data was analyzed with FLOWJO software.

HL-1 cells [4] = assay: WST-1 assay (cell viability); assay type: cell-based, mouse; conditions: HL-1 cells treated with doxorubicin 0.25 μM 48 h
Description: as §3
WST-1 assay was performed using Cell Proliferation Reagent WST-1 (Roche) as per the manufacturer instruction. Briefly, HL-1 cells were seeded in 96 well plate and next day treated with 0.25 μM Doxorubicin in normal medium with 10% FBS for forty-eight hours. Next, 10 μL WST1 reagent was added and incubated for 1 hour followed by the absorbance measurement (450 nm) at HT Synergy (Biotek) plate reader.

HL-1 cells [5] = assay: mtDNA copy number measurement; assay type: cell-based, mouse; conditions: doxorubicin 0.25 μM 48 h, circ-Insr by overexpression plasmid
Description: (§4) Based on the results of the foregoing examples, it was reasoned that circ-Insr could interact with SSBP1. To further confirm the interaction between circ-Insr and SSBP1, siRNA mediated circ-Insr knock-down was applied in HL-1 cells. Next, RNA pulldown was performed with circ-Insr and scramble biotinylated probes. RT-qPCR confirmed that decrease of circ-Insr appeared both in input and circ-Insr pulldown group (FIG. 23A). […] Therefore, we assumed that circ-Insr is a cofactor of SSBP1 resulting in the regulation of mitochondrial function in cardiomyocytes by stabilizing mtDNA. […] Furthermore, mito-damage assay was applied to measure the changes in mitochondrial membrane potential (MMP). […] Next, we co-transfected HL-1 cells with pcDNA-circ-Insr and SSBP1 siRNA and examined cell viability using the WST assay to explore whether SSBP1 participated in the circ-Insr overexpression-mediated therapy of doxorubicin-cardiotoxicity. RT-qPCR indicated SSBP1 siRNA could downregulate endogenous SSBP1 expression (FIG. 23G).
The ratio of mtDNA to genomic DNA was calculated by dividing copies of CYTB with copies of ACTB in each experiment (Li J, Chan M C, Yu Y, Bei Y H, Chen P, Zhou Q L, et al. miR-29b contributes to multiple types of muscle atrophy. Nature communications. 2017; 8). […] Fluorescence was measured during the last step of each cycle using the SYBR channel. […]

HL-1 cells [6] = assay: Mito-damage assay, mitochondrial membrane potential; assay type: cell-based, mouse; conditions: doxorubicin 0.25 μM 48 h
Description: as §4

[7] = human patients; cited from earlier work
C57BL/6 N mice = assay: Echocardiography in mouse model of chronic doxorubicin-induced cardiotoxicity
Description: as §5, §6

[8] = doxorubicin treated mice, in words

In the case of `COc1cccc2c1C(=O)c1c(O)c3c(c(O)c1C2=O)C[C@@](O)(C(C)=O)C[C@@H]3O[C@H]1C[C@H](N)[C@H](O)[C@H](C)O1` [daunorubicin], the “expression of circ-Insr” value (HL-1 cells [1]) is reported as “significant downregulation”.

In the case of `COc1cccc2c1C(=O)c1c(O)c3c(c(O)c1C2=O)C[C@@](O)(C(=O)CO)C[C@@H]3O[C@H]1C[C@H](N)[C@H](O)[C@H](C)O1` [doxorubicin], the body weight [2] is reported as “significantly halted the weight gain”, the “Brca1 mRNA expression in hearts” value (mouse heart; doxorubicin treated mice vs PBS control) is reported as “significantly lower levels” and the “circINSR expression in heart” value (mouse heart; mouse heart, doxorubicin 5 mg/kg once a week for 5 weeks) is reported as “significant decrease; also recorded: downregulation”. For the same compound, the “levels of circulating circINSR” value (circulating circINSR) was “diminished”, the “apoptotic cardiomyocytes (TUNEL / cTNT)” value (apoptotic cardiomyocytes) was “strong induction of apoptosis” and the cardiomyocyte size (cardiomyocytes) was “atrophic response”. For the same compound, the “apoptotic cells (Annexin V)” value (HL-1 cells [3]) was “increased the number of apoptotic cells”, the “cell viability (WST-1)” value (HL-1 cells [4]) was “significantly diminished; also recorded: impair” and the circINSR expression (HL-1 cells [1]; doxorubicin 0.25 μmol/L 48 h) was “downregulation”. For the same compound, the “mtDNA copy number / mtDNA content” value (HL-1 cells [5]) was “significantly reduced”, the “mitochondrial membrane potential (MMP)” value (HL-1 cells [6]) was “impair” and the “underlying cause in heart transplantation patients, share of all cases” value [7] was 2-3%. For the same compound, the “Fractional Shortening” value (C57BL/6 N mice; Mean, mice with doxorubicin, cumulative 25 mg/kg over 5 weeks) was “significant reduction”, the “left ventricular anterior and posterior wall thickness” value (C57BL/6 N mice; [8]) was “decreased” and the left ventricular volume (C57BL/6 N mice; [8]) was “increased”.

With `CC(=O)O[C@H]1C(=O)[C@@]2(C)[C@H]([C@H](OC(=O)c3ccccc3)[C@]3(O)C[C@H](OC(=O)[C@H](O)[C@@H](NC(=O)c4ccccc4)c4ccccc4)C(C)=C1C3(C)C)[C@]1(OC(C)=O)CO[C@@H]1C[C@@H]2O` [paclitaxel] the “expression of circ-Insr” value (HL-1 cells [1]) was “no change”.

With `COc1cccc2c1C(=O)c1c(O)c3c(c(O)c1C2=O)C[C@@](O)(C(=O)CO)C[C@@H]3O[C@H]1C[C@H](N)[C@@H](O)[C@H](C)O1` [epirubicin] the “expression of circ-Insr” value (HL-1 cells [1]) was “significant downregulation”.
